Tests used:
FAK [1] = target: T1, FAK (Homo sapiens, UniProt Q05397); experiment: Cell-based capture ELISA for inhibition of FAK autophosphorylation [pY397] in MiaPaCa2 cells
Experimental: Cell-Based Assays for Inhibition of FAK Autophosphorylation: MiaPaCa2 and U87MG
ELISA kit from Invitrogen (KHO0441).
Reagents Provided in Biosource FAK [pY397]
The cells were then suspended in cell assay medium.

FAK [2] = target: T1, FAK; experiment: biochemical
[3] = MIA-PaCa2 cells on fibronectin, 2 h, no plasma, read-out: Mean FAK Cell Mechanistic IC50 MIA-PaCa2
[4] = MIA-PaCa2 cells, + 50% human plasma, read-out: Mean FAK Cell Mechanistic IC50 + 50% hP MIA-PaCa2
[5] = MIA-PaCa2 cells, + 50% mouse plasma (Table 2), read-out: Mean FAK Cell Mechanistic IC50 + 50% mP MIA-PaCa2

T1 sequence (Q05397 whole entry): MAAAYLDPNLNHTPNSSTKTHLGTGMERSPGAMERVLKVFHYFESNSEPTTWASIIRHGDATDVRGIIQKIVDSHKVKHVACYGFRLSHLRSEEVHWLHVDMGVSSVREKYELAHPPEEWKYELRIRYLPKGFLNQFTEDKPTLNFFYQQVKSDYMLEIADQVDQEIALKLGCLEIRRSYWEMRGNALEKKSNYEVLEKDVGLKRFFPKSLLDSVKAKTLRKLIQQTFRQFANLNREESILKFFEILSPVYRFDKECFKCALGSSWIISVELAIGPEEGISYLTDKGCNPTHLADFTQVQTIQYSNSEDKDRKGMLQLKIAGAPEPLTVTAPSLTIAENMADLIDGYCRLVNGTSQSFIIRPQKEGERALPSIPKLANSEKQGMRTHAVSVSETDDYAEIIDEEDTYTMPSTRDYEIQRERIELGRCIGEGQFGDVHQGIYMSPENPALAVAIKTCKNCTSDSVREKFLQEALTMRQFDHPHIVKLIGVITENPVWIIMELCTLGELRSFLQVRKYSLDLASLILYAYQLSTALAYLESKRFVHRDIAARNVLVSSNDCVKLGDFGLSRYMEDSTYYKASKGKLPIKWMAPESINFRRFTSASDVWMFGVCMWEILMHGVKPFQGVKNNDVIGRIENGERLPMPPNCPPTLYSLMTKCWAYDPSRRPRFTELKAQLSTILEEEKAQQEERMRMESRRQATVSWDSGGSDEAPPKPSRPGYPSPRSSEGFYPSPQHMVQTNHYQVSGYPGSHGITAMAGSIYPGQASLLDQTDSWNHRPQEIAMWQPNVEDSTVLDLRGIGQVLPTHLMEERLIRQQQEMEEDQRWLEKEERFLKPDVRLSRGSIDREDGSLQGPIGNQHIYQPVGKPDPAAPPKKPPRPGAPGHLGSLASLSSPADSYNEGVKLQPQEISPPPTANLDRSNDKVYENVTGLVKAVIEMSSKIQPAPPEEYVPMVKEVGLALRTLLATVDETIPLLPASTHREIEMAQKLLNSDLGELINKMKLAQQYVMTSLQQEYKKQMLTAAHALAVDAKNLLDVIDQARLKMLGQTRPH

Row | SMILES | IC50 (FAK [1]; [3]) [µM] | IC50 (FAK [1]; [4]) [µM] | IC50 (FAK [1]; [5]) [µM] | IC50 (FAK [2]) [µM]
1 | CCP(=O)(CC)Cc1ccc(Nc2ncc(C(F)(F)F)c(NCc3cccnc3N(C)S(C)(=O)=O)n2)cc1 [Example 10, N-[3-({[2-({4-[(diethylphosphoryl)methyl]phenyl}amino)-5-(trifluoromethyl)pyrimidin-4-yl]amino}methyl)pyridin-2-yl]-N-methylmethanesulfonamide] | < 1 | < 1 | < 1 | < 1
2 | CCP(=O)(CC)Cc1cccc(Nc2ncc(C(F)(F)F)c(NCc3cccnc3N(C)S(C)(=O)=O)n2)c1 [Example 11, N-[3-({[2-({3-[(Diethylphosphoryl)methyl]phenyl}amino)-5-(trifluoromethyl)pyrimidin-4-yl]amino}methyl)pyridin-2-yl]-N-methylmethanesulfonamide] | < 1 | < 1 | < 1 | < 1
3 | CN(c1ncccc1CNc1nc(Nc2ccc(P(C)(C)=O)cc2)ncc1C(F)(F)F)S(C)(=O)=O [Example 14, N-[3-({[2-{[4-(Dimethylphosphoryl)phenyl]amino}-5-(trifluoromethyl)pyrimidin-4-yl]amino}methyl)pyridin-2-yl]-N-methylmethanesulfonamide] | < 1 | < 1 | < 1 | < 1
4 | CNC(=O)c1ccccc1Nc1nc(Nc2ccc(CP(C)(C)=O)cc2)ncc1C(F)(F)F [Example 16, 2-{[2-({4-[(Dimethylphosphoryl)methyl]phenyl}amino)-5-(trifluoromethyl)pyrimidin-4-yl]amino}-N-methylbenzamide] | < 1 | < 1 | < 1 | < 1
5 | CNC(=O)c1ccccc1Nc1nc(Nc2ccc(P(C)(C)=O)cc2)ncc1C(F)(F)F [Example 18, 2-{[2-{[4-(Dimethylphosphoryl)phenyl]amino}-5-(trifluoromethyl)pyrimidin-4-yl]amino}-N-methylbenzamide] | < 1 | < 1 | < 1 | < 1
6 | CCOP(=O)(Cc1ccc(Nc2ncc(C(F)(F)F)c(Nc3ccccc3C(=O)NC)n2)cc1)OCC [Example 20, diethyl (4-{[4-{[2-(methylcarbamoyl)phenyl]amino}-5-(trifluoromethyl)pyrimidin-2-yl]amino}benzyl)phosphonate] | < 1 | < 1 |  | < 1
7 | CCOP(=O)(OCC)C(C)(C)c1ccc(Nc2ncc(C(F)(F)F)c(Nc3ccccc3C(=O)NC)n2)cc1 [Example 21, Diethyl [2-(4-{[4-{[2-(methylcarbamoyl)phenyl]amino}-5-(trifluoromethyl)pyrimidin-2-yl]amino}phenyl)propan-2-yl]phosphonate] | < 1 | < 1 |  | < 1
8 | CCOP(C)(=O)Cc1ccc(Nc2ncc(C(F)(F)F)c(Nc3ccccc3C(=O)NC)n2)cc1 (stereo not shown) [Example 22, Ethyl methyl(4-{[4-{[2-(methylcarbamoyl)phenyl]amino}-5-(trifluoromethyl)pyrimidin-2-yl]amino}benzyl)phosphinate] | < 1 | < 1 |  | < 1
9 | CCP(=O)(CC)Cc1ccc(Nc2ncc(C(F)(F)F)c(Nc3ccccc3C(=O)NC)n2)cc1 [Example 24, 2-{[2-({4-[(Diethylphosphoryl)methyl]phenyl}amino)-5-(trifluoromethyl)pyrimidin-4-yl]amino}-N-methylbenzamide] | < 1 | < 1 | < 1 | < 1
10 | CCOP(=O)(Cc1ccc(Nc2ncc(C(F)(F)F)c(NCc3cccc(S(C)(=O)=O)c3)n2)cc1)OCC [Example 25, diethyl (4-{[4-{[3-(methylsulfonyl)benzyl]amino}-5-(trifluoromethyl)pyrimidin-2-yl]amino}benzyl)phosphonate] |  |  | 1 to 10 | < 1
11 | CCCCOP(=O)(Cc1ccc(Nc2ncc(C(F)(F)F)c(NCc3cccnc3N(C)S(C)(=O)=O)n2)cc1)OCCCC [Example 26, Dibutyl [4-({4-[({2-[methyl(methylsulfonyl)amino]pyridin-3-yl}methyl)amino]-5-(trifluoromethyl)pyrimidin-2-yl}amino)benzyl]phosphonate] | < 1 | < 1 | 1 to 10 | < 1

Continued, values first:

Row | IC50 (FAK [1]; [3]) [µM] | IC50 (FAK [1]; [4]) [µM] | IC50 (FAK [1]; [5]) [µM] | IC50 (FAK [2]) [µM] | SMILES
12 | 1 to 10 | 1 to 10 | 1 to 10 | < 1 | CN(c1ncccc1CNc1nc(Nc2ccc(CP(C)(C)=O)cc2)ncc1C(F)(F)F)S(C)(=O)=O [Example 12, N-[3-({[2-({4-[(Dimethylphosphoryl)methyl]phenyl}amino)-5-(trifluoromethyl)pyrimidin-4-yl]amino}methyl)pyridin-2-yl]-N-methylmethanesulfonamide]
13 | < 1 | < 1 | < 1 | < 1 | CN(c1ncccc1CNc1nc(Nc2cccc(CP(C)(C)=O)c2)ncc1C(F)(F)F)S(C)(=O)=O [Example 13, N-[3-({[2-({3-[(Dimethylphosphoryl)methyl]phenyl}amino)-5-(trifluoromethyl)pyrimidin-4-yl]amino}methyl)pyridin-2-yl]-N-methylmethanesulfonamide]
14 | < 1 | < 1 | < 1 | < 1 | CN(c1ncccc1CNc1nc(Nc2cccc(P(C)(C)=O)c2)ncc1C(F)(F)F)S(C)(=O)=O [Example 15, N-[3-({[2-{[3-(Dimethylphosphoryl)phenyl]amino}-5-(trifluoromethyl)pyrimidin-4-yl]amino}methyl)pyridin-2-yl]-N-methylmethanesulfonamide]
15 | < 1 | < 1 | < 1 | < 1 | CNC(=O)c1ccccc1Nc1nc(Nc2cccc(CP(C)(C)=O)c2)ncc1C(F)(F)F [Example 17, 2-{2-[3-(Dimethylphosphinoylmethyl)phenylamino]-5-trifluoromethylpyrimidin-4-ylamino}-N-methylbenzamide]
16 | < 1 | < 1 | < 1 | < 1 | CCP(=O)(CC)Cc1cccc(Nc2ncc(C(F)(F)F)c(Nc3ccccc3C(=O)NC)n2)c1 [Example 23, 2-{[2-({3-[(Diethylphosphoryl)methyl]phenyl}amino)-5-(trifluoromethyl)pyrimidin-4-yl]amino}-N-methylbenzamide]
17 | < 1 | < 1 | < 1 | < 1 | CCCOP(=O)(Cc1ccc(Nc2ncc(C(F)(F)F)c(NCc3cccnc3N(C)S(C)(=O)=O)n2)cc1)OCCC [Example 28, dipropyl [4-({4-[({2-[methyl(methylsulfonyl)amino]pyridin-3-yl}methyl)amino]-5-(trifluoromethyl)pyrimidin-2-yl}amino)benzyl]phosphonate]
18 | < 1 | 1 to 10 | 1 to 10 | < 1 | CCC(C)OP(=O)(Cc1ccc(Nc2ncc(C(F)(F)F)c(NCc3cccnc3N(C)S(C)(=O)=O)n2)cc1)OC(C)CC (stereo not shown) [Example 29, dibutan-2-yl [4-({4-[({2-[methyl(methylsulfonyl)amino]pyridin-3-yl}methyl)amino]-5-(trifluoromethyl)pyrimidin-2-yl}amino)benzyl]phosphonate]

Reference: patent publication US9096624B2 (OSI Pharmaceuticals, LLC, priority 2009, dated 2015)
